Reference: ChEMBL document CHEMBL4837239, “Identification of Thieno[3,2-d]pyrimidine Derivatives as Dual Inhibitors of Focal Adhesion Kinase and FMS-like Tyrosine Kinase 3” (J Med Chem, 2021)
Blank lines part the entries; values can stand above or below the compound they belong to. Calls of active or inactive are those of the source. The rule behind the calls is not given here.

Experiments:
HCT-116 [1] = test: Antiproliferative activity against human HCT-116 cells assessed as growth inhibition measured after 72 hrs by CellTiter-Glo assay; format: functional
MDA-MB-231 [2] = test: Antiproliferative activity against human MDA-MB-231 cells assessed as growth inhibition measured after 72 hrs by CellTiter-Glo assay; format: functional
A375P = test: (§1) Antiproliferative activity against human A375P cells assessed as growth inhibition measured after 72 hrs by CellTiter-Glo assay; format: functional
[3] = as §1; format: functional
CYP1A2 = biological target: T1, CYP1A2 (Homo sapiens, UniProt P05177); test: Inhibition of CYP1A2 (unknown origin) at 10 uM relative to control; format: ADME
T1 sequence (P05177 whole entry): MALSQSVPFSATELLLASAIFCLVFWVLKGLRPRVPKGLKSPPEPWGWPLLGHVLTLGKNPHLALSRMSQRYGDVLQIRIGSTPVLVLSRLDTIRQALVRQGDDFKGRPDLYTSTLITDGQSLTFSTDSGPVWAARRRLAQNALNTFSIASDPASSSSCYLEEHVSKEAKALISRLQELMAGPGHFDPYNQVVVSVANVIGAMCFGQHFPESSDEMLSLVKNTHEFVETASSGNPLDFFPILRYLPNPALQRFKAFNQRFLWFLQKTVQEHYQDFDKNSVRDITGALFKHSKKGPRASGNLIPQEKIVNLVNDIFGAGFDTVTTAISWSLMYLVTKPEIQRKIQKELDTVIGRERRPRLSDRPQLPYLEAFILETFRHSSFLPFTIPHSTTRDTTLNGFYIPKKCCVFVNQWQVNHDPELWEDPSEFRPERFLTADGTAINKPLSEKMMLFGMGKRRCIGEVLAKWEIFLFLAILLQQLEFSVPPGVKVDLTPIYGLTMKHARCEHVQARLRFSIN

CYP2C9 = CYP2C9 (Homo sapiens, UniProt P11712); test: Inhibition of CYP2C9 (unknown origin) at 10 uM relative to control; format: ADME
CYP2C9, sequence (P11712 whole entry): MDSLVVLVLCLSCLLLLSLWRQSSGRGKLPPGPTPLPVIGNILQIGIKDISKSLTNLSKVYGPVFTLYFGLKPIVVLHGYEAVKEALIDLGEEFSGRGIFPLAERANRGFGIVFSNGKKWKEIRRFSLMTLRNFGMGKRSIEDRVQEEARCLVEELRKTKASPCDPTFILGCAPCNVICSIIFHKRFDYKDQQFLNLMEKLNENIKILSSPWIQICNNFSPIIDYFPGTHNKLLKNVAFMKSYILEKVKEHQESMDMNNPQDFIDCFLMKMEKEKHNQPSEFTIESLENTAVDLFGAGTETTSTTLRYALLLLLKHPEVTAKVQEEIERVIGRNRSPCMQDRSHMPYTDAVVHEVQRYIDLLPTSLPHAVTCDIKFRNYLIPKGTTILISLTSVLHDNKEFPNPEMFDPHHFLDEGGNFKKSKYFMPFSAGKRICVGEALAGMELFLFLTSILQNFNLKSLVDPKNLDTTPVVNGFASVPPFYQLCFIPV

CYP2D6 = CYP2D6 (Homo sapiens, UniProt P10635); test: Inhibition of CYP2D6 (unknown origin) at 10 uM relative to control; format: ADME
CYP2D6, sequence (P10635 whole entry): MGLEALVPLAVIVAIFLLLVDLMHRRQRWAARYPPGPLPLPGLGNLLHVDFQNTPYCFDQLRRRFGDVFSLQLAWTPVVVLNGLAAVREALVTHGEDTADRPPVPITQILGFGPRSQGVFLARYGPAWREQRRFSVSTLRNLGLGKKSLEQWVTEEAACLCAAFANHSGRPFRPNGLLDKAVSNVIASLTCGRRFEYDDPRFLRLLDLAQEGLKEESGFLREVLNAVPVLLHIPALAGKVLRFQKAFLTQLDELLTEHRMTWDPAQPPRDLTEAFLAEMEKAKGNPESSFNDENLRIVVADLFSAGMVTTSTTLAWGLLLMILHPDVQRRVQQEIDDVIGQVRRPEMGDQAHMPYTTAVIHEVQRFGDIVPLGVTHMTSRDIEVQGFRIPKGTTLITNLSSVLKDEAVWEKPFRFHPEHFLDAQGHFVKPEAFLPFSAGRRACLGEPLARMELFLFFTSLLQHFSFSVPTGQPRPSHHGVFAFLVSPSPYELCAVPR

CYP3A4 = CYP3A4 (Homo sapiens, UniProt P08684); test: Inhibition of CYP3A4 (unknown origin) at 10 uM relative to control; format: ADME
CYP3A4, sequence (P08684 whole entry): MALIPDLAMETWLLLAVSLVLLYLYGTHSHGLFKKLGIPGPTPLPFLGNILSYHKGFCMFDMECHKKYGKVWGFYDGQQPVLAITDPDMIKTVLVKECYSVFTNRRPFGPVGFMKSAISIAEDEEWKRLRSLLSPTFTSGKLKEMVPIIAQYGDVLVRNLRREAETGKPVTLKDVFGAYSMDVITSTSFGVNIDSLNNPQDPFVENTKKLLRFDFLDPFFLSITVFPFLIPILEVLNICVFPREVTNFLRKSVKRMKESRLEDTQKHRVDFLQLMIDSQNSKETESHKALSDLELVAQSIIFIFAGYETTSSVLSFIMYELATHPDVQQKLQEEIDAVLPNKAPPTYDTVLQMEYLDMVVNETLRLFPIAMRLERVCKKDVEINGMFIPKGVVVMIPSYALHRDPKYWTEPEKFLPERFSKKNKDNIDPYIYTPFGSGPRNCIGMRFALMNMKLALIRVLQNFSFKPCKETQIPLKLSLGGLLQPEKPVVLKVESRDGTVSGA

[4] = biological target: T2, Mitogen-activated protein kinase; ERK1/ERK2 (Homo sapiens) (UniProt P27361+P28482); test: Inhibition of ERK1/2 autophosphorylation in human HCT-116 cells at 0.5 to 5 uM incubated for 24 hrs by Western blot analysis; format: cell-based; conditions: dose 0.5-5 µM
T2 sequence (P27361 whole entry, looked up): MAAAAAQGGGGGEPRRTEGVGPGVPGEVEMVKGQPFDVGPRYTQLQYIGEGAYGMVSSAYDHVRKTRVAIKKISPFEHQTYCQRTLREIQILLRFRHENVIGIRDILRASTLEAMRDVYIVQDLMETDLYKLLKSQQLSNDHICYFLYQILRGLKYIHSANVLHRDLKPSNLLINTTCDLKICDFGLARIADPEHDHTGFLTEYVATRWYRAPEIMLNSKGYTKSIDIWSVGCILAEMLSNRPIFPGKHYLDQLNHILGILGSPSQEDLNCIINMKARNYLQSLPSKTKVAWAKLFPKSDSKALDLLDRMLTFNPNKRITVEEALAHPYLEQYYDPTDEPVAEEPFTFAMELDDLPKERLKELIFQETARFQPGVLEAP
T2 sequence (P28482 whole entry, looked up): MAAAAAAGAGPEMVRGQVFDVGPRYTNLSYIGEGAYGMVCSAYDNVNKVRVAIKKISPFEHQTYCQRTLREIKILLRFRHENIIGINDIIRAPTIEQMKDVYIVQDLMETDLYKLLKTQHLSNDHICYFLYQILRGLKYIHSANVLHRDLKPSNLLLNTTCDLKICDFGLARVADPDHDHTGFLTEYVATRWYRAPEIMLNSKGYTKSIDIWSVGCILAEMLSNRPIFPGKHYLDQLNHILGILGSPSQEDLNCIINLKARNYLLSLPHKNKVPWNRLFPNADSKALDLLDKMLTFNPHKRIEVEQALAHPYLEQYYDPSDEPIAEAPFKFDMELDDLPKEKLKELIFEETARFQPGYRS

[5] = biological target: T2, Mitogen-activated protein kinase; ERK1/ERK2 (Homo sapiens); test: Inhibition of ERK1/2 autophosphorylation in human MDA-MB-231 cells at 0.5 to 5 uM incubated for 24 hrs by Western blot analysis; format: cell-based; conditions: dose 0.5-5 µM
HCT-116 [6] = test: Induction of apoptosis in human HCT-116 cells assessed as cleaved PARP at 0.1 to 10 uM incubated for 24 hrs by Western blot analysis; format: functional, cell-based; conditions: dose 0.1-10 µM
MDA-MB-231 [7] = test: Induction of apoptosis in human MDA-MB-231 cells assessed as cleaved PARP at 0.1 to 10 uM incubated for 24 hrs by Western blot analysis; format: functional, cell-based; conditions: dose 0.1-10 µM
HCT-116 [8] = test: Induction of apoptosis in human HCT-116 cells assessed as cleaved caspase-3 at 0.1 to 10 uM incubated for 24 hrs by Western blot analysis; format: functional, cell-based; conditions: dose 0.1-10 µM
MDA-MB-231 [9] = test: Induction of apoptosis in human MDA-MB-231 cells assessed as cleaved caspase-3 at 0.1 to 10 uM incubated for 24 hrs by Western blot analysis; format: functional, cell-based; conditions: dose 0.1-10 µM
MDA-MB-231 [10] = test: Induction of apoptosis in human MDA-MB-231 cells assessed apoptotic cell death at 10 uM incubated for 24 hrs by Annexin-V/PI analysis; format: functional, cell-based
MDA-MB-231 [11] = test: Growth inhibition of anchorage-Independent human MDA-MB-231 cells assessed as decrease in number of colonies incubated for 72 hrs by MTT assay; format: functional, cell-based; conditions: dose 1-10 µM
MDA-MB-231 [12] = test: In vivo antitumor activity against human MDA-MB-231 cells xenografted in Balb/c mouse assessed as tumor volume at 40 mg/kg, po once daily measured for 16 days (reference value: 600 mm^3); format: functional; conditions: time 16.0 day
MDA-MB-231 [13] = test: In vivo antitumor activity against human MDA-MB-231 cells xenografted in Balb/c mouse assessed as tumor volume at 70 mg/kg, po once daily measured for 16 days (reference value: 600 mm^3); format: functional; conditions: time 16.0 day
MDA-MB-231 [14] = test: In vivo antitumor activity against human MDA-MB-231 cells xenografted in Balb/c mouse assessed as reduction in tumor mass at 40 to 70 mg/kg, po once daily measured for 16 days; format: functional, organism-based; conditions: dose 40-70 mg/kg, time 16.0 day
MDA-MB-231 [15] = test: In vivo antitumor activity against human MDA-MB-231 cells xenografted in Balb/c mouse assessed as reduction in tumor weight at 40 to 70 mg/kg, po once daily measured for 16 days; format: functional, organism-based; conditions: dose 40-70 mg/kg, time 16.0 day
MDA-MB-231 [16] = test: Antitumor activity against human MDA-MB-231 cells xenografted in Balb/c mouse assessed as decrease in ki67 at 40 to 70 mg/kg, po once daily measured for 16 days by Immunohistochemical analysis; format: functional, organism-based; conditions: dose 40-70 mg/kg, time 16.0 day
[17] = Toxicity in Balb/c mouse xenografted with human MDA-MB-231 cells assessed as change in body weight at 40 to 70 mg/kg, po once daily measured for 16 days; format: organism-based; conditions: in vivo, 384 h, dose 40-70 mg/kg, time 16 day
MDA-MB-231 [18] = test: Antimetastatic activity against human MDA-MB-231 cells expressing firefly luciferase xenografted NSG orthotopic mouse model assessed as reduction in luminescence intensity at chest region at 70 mg/kg, po once daily measured for 2 weeks; format: functional, organism-based
Focal adhesion kinase 1 = Focal adhesion kinase 1 (Homo sapiens, UniProt Q05397); test: Inhibition of recombinant FAK (unknown origin) by radiometric kinase assay
Focal adhesion kinase 1, sequence (Q05397 whole entry): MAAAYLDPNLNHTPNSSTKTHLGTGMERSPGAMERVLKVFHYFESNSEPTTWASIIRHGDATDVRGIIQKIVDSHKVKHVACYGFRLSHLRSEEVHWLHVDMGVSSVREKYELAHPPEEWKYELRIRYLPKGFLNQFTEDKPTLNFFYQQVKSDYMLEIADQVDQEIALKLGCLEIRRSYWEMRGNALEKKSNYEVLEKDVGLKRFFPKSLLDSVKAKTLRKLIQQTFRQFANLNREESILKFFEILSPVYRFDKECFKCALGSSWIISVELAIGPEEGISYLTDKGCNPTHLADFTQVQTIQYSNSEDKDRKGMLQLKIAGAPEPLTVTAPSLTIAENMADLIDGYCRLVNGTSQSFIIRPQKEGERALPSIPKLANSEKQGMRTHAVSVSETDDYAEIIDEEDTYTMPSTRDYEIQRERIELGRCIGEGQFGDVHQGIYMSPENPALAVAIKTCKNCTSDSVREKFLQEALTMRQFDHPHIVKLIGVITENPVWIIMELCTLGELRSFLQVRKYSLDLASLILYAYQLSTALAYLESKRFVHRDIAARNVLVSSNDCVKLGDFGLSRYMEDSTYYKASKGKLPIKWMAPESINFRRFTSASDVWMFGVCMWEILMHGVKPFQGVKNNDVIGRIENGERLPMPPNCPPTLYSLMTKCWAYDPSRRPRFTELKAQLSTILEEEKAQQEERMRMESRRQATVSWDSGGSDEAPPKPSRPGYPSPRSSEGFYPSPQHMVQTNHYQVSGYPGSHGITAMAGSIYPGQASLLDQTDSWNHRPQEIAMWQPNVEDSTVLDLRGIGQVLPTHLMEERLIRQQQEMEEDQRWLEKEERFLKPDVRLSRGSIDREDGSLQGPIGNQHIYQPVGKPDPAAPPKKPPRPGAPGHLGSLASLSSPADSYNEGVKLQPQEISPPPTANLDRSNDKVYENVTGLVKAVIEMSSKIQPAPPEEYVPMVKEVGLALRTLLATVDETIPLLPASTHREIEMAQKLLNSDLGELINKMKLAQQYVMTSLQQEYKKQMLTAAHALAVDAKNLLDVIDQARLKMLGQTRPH

[19] = Metabolic stability in human liver microsomes assessed as compound remaining at 1 uM measured after 1 hr; format: ADME, Microsome; conditions: read-out: Stabilty
[20] = Inhibition of FYK Y379 mutant phosphorylation in human MDA-MB-231 cells by in-cell western blot assay; format: cell-based
[21] = Inhibition of FLT3 D835Y (unknown origin); design: species or system Homo sapiens
BaF3 [22] = test: Antiproliferative activity against mouse Ba/F3 cells harbouring FLT3 ITD mutant assessed as growth inhibition measured after 72 hrs by CellTiter-Glo assay; format: functional
BaF3 [23] = test: Antiproliferative activity against mouse Ba/F3 cells harbouring FLT3 ITD D835Y mutant assessed as growth inhibition measured after 72 hrs by CellTiter-Glo assay; format: functional
BaF3 [24] = test: Antiproliferative activity against mouse Ba/F3 cells harbouring FLT3 D835Y mutant assessed as growth inhibition measured after 72 hrs by CellTiter-Glo assay; format: functional
BaF3 [25] = test: Antiproliferative activity against mouse Ba/F3 cells harbouring FLT3 ITD F691L mutant assessed as growth inhibition measured after 72 hrs by CellTiter-Glo assay; format: functional
BaF3 [26] = test: Antiproliferative activity against mouse Ba/F3 cells harbouring FLT3 ITD F691I mutant assessed as growth inhibition measured after 72 hrs by CellTiter-Glo assay; format: functional
BaF3 [27] = test: Antiproliferative activity against mouse Ba/F3 cells assessed as growth inhibition measured after 72 hrs by CellTiter-Glo assay; format: functional

GI50 (HCT-116 [1]; Homo sapiens, HCT-116): 55800 nM | GI50 (MDA-MB-231 [2]; Homo sapiens, MDA-MB-231): 57200 nM | GI50 (A375P): inactive
SMILES: CS(=O)(=O)Nc1cccc(-c2csc3cnc(NCCO)nc23)c1

GI50 (HCT-116 [1]; Homo sapiens, HCT-116): 1140 nM | GI50 (MDA-MB-231 [2]; Homo sapiens, MDA-MB-231): 1950 nM | inhibition at 10 µM (CYP1A2): 91.2% | inhibition at 10 µM (CYP2C9): 42.7% | inhibition at 10 µM (CYP2D6): 90.5% | inhibition at 10 µM (CYP3A4): 47.2% | inhibition [4]: inactive | inhibition [5]: inactive
SMILES: CN(c1ncccc1CNc1nc(Nc2ccc3c(c2)CC(=O)N3)ncc1C(F)(F)F)S(C)(=O)=O [PF-00562271]
GI50 ([3]; Homo sapiens, A375P): 10200 nM | Activity (HCT-116 [6]): Active | Activity (MDA-MB-231 [7]): Active | Activity (HCT-116 [8]): Active | Activity (MDA-MB-231 [9]): Active | Activity (MDA-MB-231 [10]): Active | growth inhibition (GI) (MDA-MB-231 [11]): Active | Activity (MDA-MB-231 [12]): Active | Activity (MDA-MB-231 [13]): Active | Activity (MDA-MB-231 [14]): Active | Activity (MDA-MB-231 [15]): Active | Activity (MDA-MB-231 [16]): Active | Activity [17]: Non-Toxic | Activity (MDA-MB-231 [18]): Active

IC50 (Focal adhesion kinase 1): 1650 nM | GI50 (HCT-116 [1]; Homo sapiens, HCT-116): 31200 nM | GI50 (MDA-MB-231 [2]; Homo sapiens, MDA-MB-231): 46200 nM | GI50 (A375P): inactive
SMILES: CCOC(=O)c1ccccc1-c1csc2cnc(Nc3ccc(N4CCN(CC)CC4)cc3)nc12

IC50 (Focal adhesion kinase 1): 126 nM | GI50 (HCT-116 [1]; Homo sapiens, HCT-116): 2060 nM | GI50 (MDA-MB-231 [2]; Homo sapiens, MDA-MB-231): 1380 nM | GI50 (A375P): inactive
SMILES: CCN1CCN(c2ccc(Nc3ncc4scc(-c5ccc6ccccc6c5)c4n3)cc2)CC1

SMILES: COc1cc(Nc2ncc3scc(-c4cccc(NS(C)(=O)=O)c4)c3n2)cc(OC)c1OC
IC50 (Focal adhesion kinase 1): 7 nM | GI50 (HCT-116 [1]): 430 nM | GI50 (MDA-MB-231 [2]): 410 nM | GI50 [3]: 200 nM | remaining at 1 h, 1 µM [19]: 39.7% | IC50 [20]: 260 nM | IC50 [21]: < 0.5 nM | GI50 (BaF3 [22]): 3.1 nM | GI50 (BaF3 [23]): 1.3 nM | GI50 (BaF3 [24]): 1.3 nM | GI50 (BaF3 [25]): 25.3 nM | GI50 (BaF3 [26]): 325 nM | GI50 (BaF3 [27]): 586 nM
